In paper PMC8968852, “A New Spectral Shift-Based Method to Characterize Molecular Interactions” (Assay and Drug Development Technologies, 2022):
Read-outs that look alike come from different tables or passages of the source.

Key:
[1] = test system: Cy5-labeled 13-mer (5′ Cy5 TTT GGA CTT CAG G 3′); assay: Spectral shift DNA hybridization and van't Hoff analysis; format: binding
Procedure: Chemically synthesized DNA oligonucleotides were obtained from Metabion GmbH (Planegg, Germany). A Cy5-labeled 13-mer including a short poly-T spacer in front of a 10 base-long recognition sequence (sequence 5′ Cy5 TTT GGA CTT CAG G 3′) was designed as target and a complementary 10-mer (sequence 3′ CCT GAA GTC C 5′) as ligand. All other chemicals and reagents used in this study were of the highest available analytic grade.
All dual-emission spectral shift measurements in this work were performed in coated capillaries (cat# MO-K025; NanoTemper Technologies GmbH) using the Monolith X instrument equipped with dual-emission detection optics (NanoTemper Technologies GmbH). The required volume per data point was 10 μL. Environment-sensitive near-infrared dyes with an emission maximum at around 660 nm (e.g., RED 2nd Generation dyes, NanoTemper Technologies GmbH, or Cy5) were used as fluorescent reporters. For each ratiometric reading, the fluorescence was recorded simultaneously at 650 and 670 nm for 5 s (Table 1).
Lyophilized DNA oligonucleotides were resuspended in ddH2O to a concentration of 100 μM. Assay buffer (20 mM sodium phosphate buffer, pH 7.2, 100 mM NaCl, 0.05% TWEEN® 20) was prepared as twofold stock. Cy5-labeled 13-mer was further diluted in twofold assay buffer. Serial dilution of 10-mer was performed in ddH2O. The highest final concentration of 10-mer in the 16-point dilution series was 2 μM and the final concentration of Cy5-labeled 13-mer was 2.5 nM with 20 μL in each sample. For ratiometric fluorescence analysis, the device was adjusted to the desired temperature and samples were incubated for 5 min before starting the measurement. Measurements were performed at 23°C to 37°C in 2°C increments and then repeated in reverse order. Capillaries were sealed with Capillary Sealing Paste (cat# PR-P001; NanoTemper Technologies GmbH) to prevent evaporation.
Ratios of the fluorescence intensities at 670 and 650 nm were calculated automatically within the MO.Control software (NanoTemper Technologies GmbH). For Kd determination, dose–response curves were fitted with a binding model that describes a molecular interaction with a 1:1 stoichiometry according to the law of mass action. In this model, the fraction bound f(cligand) at a given ligand concentration cligand in equilibrium is given as (1) fcligand=cligand+ctarget+Kd−cligand+ctarget+Kd^2−4⋅cligand⋅ctarget/2ctarget
Van't Hoff plots were prepared by plotting the logarithm of the dissociation constant, ln Kd, over the inverse temperature, 1/T. A linear regression was then used to calculate thermodynamic parameters according to (5) ΔH=R⋅slope

GLUT1 = conditions: reported IC50 from cellular assays; cited from earlier work
[2] = molecular target: T1, Carbonic Anhydrase II from bovine erythrocytes (bCA-II) (Bos taurus, UniProt P00921); assay: biochemical; format: binding
T1 construct: Carbonic Anhydrase II from bovine erythrocytes; purchased Sigma Aldrich C2522; host or cells: bovine erythrocytes

bCA-II [3] = conditions: literature SPR; cited from earlier work
bCA-II [4] = conditions: literature ITC; cited from earlier work
[5] = van't Hoff analysis, 23°C to 37°C

T1 sequence (P00921 whole entry): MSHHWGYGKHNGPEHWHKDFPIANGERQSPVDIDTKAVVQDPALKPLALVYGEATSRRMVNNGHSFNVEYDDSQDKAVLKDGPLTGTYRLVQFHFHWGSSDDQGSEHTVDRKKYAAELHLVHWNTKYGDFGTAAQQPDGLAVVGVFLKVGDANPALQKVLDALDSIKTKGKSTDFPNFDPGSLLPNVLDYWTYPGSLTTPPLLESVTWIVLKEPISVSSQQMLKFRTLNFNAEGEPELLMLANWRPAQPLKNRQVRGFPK

For “3′ CCT GAA GTC C 5′ (DNA CCTGAAGTCC; chemistry not fully specified; listed 3' to 5') [10-mer, chemically synthesized DNA 10-mer complementary to the Cy5-labeled 13-mer target]”, the Kd ([1]; 23 °C) was 0.00177 ± 6e-05 µM, the Kd ([1]; 25 °C) was 0.00335 ± 0.00011 µM and the Kd ([1]; 27 °C) was 0.00652 ± 0.00017 µM. It also gave a Kd ([1]; 29 °C) of 0.0128 ± 0.0003 µM, a Kd ([1]; 31 °C) of 0.0254 ± 0.0004 µM and a Kd ([1]; 33 °C) of 0.0504 ± 0.0007 µM. The Kd ([1]; 35 °C) was 0.102 ± 0.002 µM, the Kd ([1]; 37 °C) was 0.198 ± 0.004 µM and the “entropy ΔS” value [1, 5] was −168.5 cal/mol/K. The “van't Hoff enthalpy ΔH” value [1, 5] was -61.8 kcal/mol.
For `NS(=O)(=O)c1ccccc1` [Benzenesulfonamide, benzenesulfonamide], the Kd [2] is listed as 0.502 ± 0.067 µM, the “670 nm/650 nm ratio of labeled bCA-II upon inhibitor binding” value ([2]; final value, without bound inhibitor 0.884) is listed as 0.890 and the Kd (bCA-II [3]) is listed as 0.848 µM. The Kd (bCA-II [4]) was 0.839 µM.
